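Protocol summary: plate cells (96-well), add compound at 5 concentrations, incubate 48 h, interpolate endpoints linearly. TGI is the concentration that stops growth completely.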
Key:
Assay in all cases: NCI tumour cell line growth inhibition, 48 h
[1] = system: DLD-1 colon
[2] = system: DMS 114 small cell lung
[3] = system: P388 leukemia
[4] = system: P388/ADR leukemia
[5] = system: SNB-78 CNS
[6] = system: XF 498 CNS
[7] = system: LXFL 529 NSCLC

Row | Structure (SMILES) | TGI [1] | TGI [2] | TGI [3] | TGI [4] | TGI [5] | TGI [6] | TGI [7]
1 | COc1c2ccoc2c(S(=O)(=O)Nc2ccc(Cl)cc2)c2oc(C)cc(=O)c12 | > 100 µM | > 100 µM | > 100 µM | > 100 µM | > 100 µM | > 100 µM | –
2 | FC(F)(F)C1=NC(=NNc2nnc(-c3ccccc3)c(-c3ccccc3)n2)N=C(C(F)(F)F)C1 | > 100 µM | 28.2 µM | > 47.5 µM | > 100 µM | > 100 µM | > 88.5 µM | –
3 | O=C(/N=C/c1c(O)c2ccccc2oc1=O)NC1CCCCC1 | – | > 100 µM | – | – | > 100 µM | 93 µM | > 100 µM
4 | C=C1C(=O)OC2/C=C(\C)CC(O)/C=C(/CO)CC(OC(=O)/C(C)=C/C)C12 (stereo not given) | 139 µM | 30.5 µM | 113 µM | 240 µM | 319 µM | 37.2 µM | –
5 | C[C@H](O)C(=O)SC[C@H](NC(=O)CC[C@@H](N)C(=O)O)C(=O)NCC(=O)O | > 100 µM | > 100 µM | – | – | – | – | > 100 µM
